The results in this text go back to patent US8309577B2, “Quinuclidine compounds as α-7 nicotinic acetylcholine receptor ligands” (Bristol-Myers Squibb Company, priority 2008, dated 2012).

The term EC50 denotes the concentration giving half of the maximal effect. Lower therefore signals higher potency in that assay.

In the experiment the target is T1, α-7 nicotinic acetylcholine receptor channel expressed in HEK 293 cells (Rattus norvegicus, UniProt Q05941).
T1 construct: expressed in transfected cells
Kind of experiment: Ca2+-sensitive fluorescence-based FLIPR assay, α7 nicotinic ACh receptor channel function (agonist). It counts as cell-based. The following applies: FLIPR α7 activity rating (EC50, nM), Table 1; HEK 293 cells, agonist Ca2+ flux. A digest of the protocol: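 Potency and efficacy derived from kinetic FLIPR Ca²⁺-flux fluorescence, recorded 3 min after compound addition in Hanks buffer following a 10 s baseline.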
(In general: A change in cytosolic calcium serves as a functional read-out for many receptors and channels.)

T1 sequence (Q05941 23-502): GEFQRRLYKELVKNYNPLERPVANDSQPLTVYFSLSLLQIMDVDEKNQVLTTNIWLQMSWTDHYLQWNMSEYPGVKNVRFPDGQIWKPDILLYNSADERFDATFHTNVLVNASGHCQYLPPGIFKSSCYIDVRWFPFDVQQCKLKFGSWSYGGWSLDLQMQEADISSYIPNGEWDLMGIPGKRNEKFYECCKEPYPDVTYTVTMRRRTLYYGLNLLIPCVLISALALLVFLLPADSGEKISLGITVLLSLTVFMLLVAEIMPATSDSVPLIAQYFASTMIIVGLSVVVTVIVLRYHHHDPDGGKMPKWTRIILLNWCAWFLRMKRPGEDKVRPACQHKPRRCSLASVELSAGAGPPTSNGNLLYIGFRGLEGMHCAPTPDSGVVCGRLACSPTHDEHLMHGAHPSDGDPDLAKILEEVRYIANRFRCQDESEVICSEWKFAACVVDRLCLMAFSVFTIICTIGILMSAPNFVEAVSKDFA

Take `Cc1cc(NC2=NC[C@@]3(CN4CCC3CC4)O2)ncc1Cl` [Example 253, (R)—N-(5-Chloro-4-methylpyridin-2-yl)-4H-1′-azaspiro[oxazole-5,3′-bicyclo[2.2.2]octan]-2-amine]: the EC50 is less than 100 nM.

The molecule `Clc1ccc(NC2=NC[C@@]3(CN4CCC3CC4)O2)nn1` [Example 254, (R)—N-(6-Chloropyridazin-3-yl)-4H-1′-azaspiro[oxazole-5,3′-bicyclo[2.2.2]octan]-2-amine] gave an EC50 of 100 to 1000 nM.

Consider `Brc1ccc(NC2=NC[C@@]3(CN4CCC3CC4)O2)nn1` [Example 255, (R)—N-(6-Bromopyridazin-3-yl)-4H-1′-azaspiro[oxazole-5,3′-bicyclo[2.2.2]octan]-2-amine], for which the EC50 is 100 to 1000 nM.

`Clc1ccc(-c2cc(NC3=NC[C@@]4(CN5CCC4CC5)O3)ncn2)cc1` [Example 256, (R)—N-(6-(4-Chlorophenyl)pyrimidin-4-yl)-4H-1′-azaspiro[oxazole-5,3′-bicyclo[2.2.2]octan]-2-amine] showed a half-maximal effective concentration (EC50) of less than 100 nM.

In turn, `Clc1cccc(-c2cc(NC3=NC[C@@]4(CN5CCC4CC5)O3)ncn2)c1` [Example 257, (R)—N-(6-(3-Chlorophenyl)pyrimidin-4-yl)-4H-1′-azaspiro[oxazole-5,3′-bicyclo[2.2.2]octan]-2-amine] returned an EC50 of less than 100 nM.

For `Cc1nnc(NC2=NC[C@@]3(CN4CCC3CC4)O2)o1` [Example 258, (R)—N-(5-Methyl-1,3,4-oxadiazol-2-yl)-4H-1′-azaspiro[oxazole-5,3′-bicyclo[2.2.2]octan]-2-amine], the EC50 lay in the range of 1000 to 100000 nM.

`Cc1nsc(NC2=NC[C@@]3(CN4CCC3CC4)O2)n1` [Example 259, (R)—N-(3-Methyl-1,2,4-thiadiazol-5-yl)-4H-1′-azaspiro[oxazole-5,3′-bicyclo[2.2.2]octan]-2-amine] registered an EC50 of 1000 to 100000 nM.

For the molecule `Cc1noc(NC2=NC[C@@]3(CN4CCC3CC4)O2)n1` [Example 260, (R)—N-(3-Methyl-1,2,4-oxadiazol-5-yl)-4H-1′-azaspiro[oxazole-5,3′-bicyclo[2.2.2]octan]-2-amine], the EC50 is 100 to 1000 nM.

The molecule `CSc1cc(NC2=NC[C@@]3(CN4CCC3CC4)O2)ncn1` [Example 261, (R)—N-(6-(Methylthio)pyrimidin-4-yl)-4H-1′-azaspiro[oxazole-5,3′-bicyclo[2.2.2]octan]-2-amine] yielded an EC50 of less than 100 nM.

Molecule `c1ccn2c(NC3=NC[C@@]4(CN5CCC4CC5)O3)nnc2c1` [Example 262, (R)—N-([1,2,4]Triazol[4,3-a]pyridine-3-yl)-4H-1′-azaspiro[oxazole-5,3′-bicyclo[2.2.2]octan]-2-amine] registered an EC50 of 1000 to 100000 nM.

`Brc1cnc2nc(NC3=NC[C@@]4(CN5CCC4CC5)O3)sc2n1` [Example 263, (R)—N-(6-bromothiazolo[5,4-b]pyrazin-2-yl)-4H-1′-azaspiro[oxazole-5,3′-bicyclo[2.2.2]octan]-2-amine]: the EC50 was less than 100 nM.

`CSc1cnc2nc(NC3=NC[C@@]4(CN5CCC4CC5)O3)sc2n1` [Example 264, (R)—N-(6-(methylthio)thiazolo[5,4-h]pyrazin-2-yl)-4H-1′-azaspiro[oxazole-5,3′-bicyclo[2.2.2]octan]-2-amine] had an EC50 of 100 to 1000 nM.

The molecule `COc1ncc2nc(NC3=NC[C@@]4(CN5CCC4CC5)O3)sc2n1` [Example 265, (R)—N-(5-Methoxythiazolo[5,4-d]pyrimidin-2-yl)-4H-1′-azaspiro[oxazole-5,3′-bicyclo[2.2.2]octan]-2-amine] showed an EC50 of less than 100 nM.

The molecule `CCc1nnc(NC2=NC[C@@]3(CN4CCC3CC4)O2)o1` [Example 266, (R)—N-(5-Ethyl-1,3,4-oxadiazol-2-yl)-4H-1′-azaspiro[oxazole-5,3′-bicyclo[2.2.2]octan]-2-amine] returned an EC50 of 1000 to 100000 nM.

On to `Clc1cnc(NC2=NC[C@@]3(CN4CCC3CC4)O2)c(Cl)c1` [Example 267, (R)—N-(3,5-Dichloropyridin-2-yl)-4H-1′-azaspiro[oxazole-5,3′-bicyclo[2.2.2]octan]-2-amine], for which the EC50 was less than 100 nM.

In the case of `Clc1ccc2nc(NC3=NC[C@@]4(CN5CCC4CC5)O3)sc2n1` [Example 268, (R)—N-(5-chlorothiazolo[5,4-b]pyridin-2-yl)-4H-1′-azaspiro[oxazole-5,3′bicyclo[2.2.2]octan]-2-amine], the EC50 is less than 100 nM.

`CN(C)c1ncc2nc(NC3=NC[C@@]4(CN5CCC4CC5)O3)sc2n1` [Example 269, (R)—N^5,N^5-dimethyl-N^2-(4H-1′-azaspiro[oxazole-5,3′-bicyclo[2.2.2]octane]-2-yl)thiazolo[5,4-d]pyrimidine-2,5-diamine] displayed an EC50 of 1000 to 100000 nM.

With `c1cn2nc(NC3=NC[C@@]4(CN5CCC4CC5)O3)nc2cn1` [Example 270, (R)—N-([1,2,4]Triazol[1,5-a]pyrazin-2-yl)-4H-1′-azaspiro[oxazole-5,3′-bicyclo[2.2.2]octan]-2-amine], the EC50 is less than 100 nM.

`c1cnc2sc(NC3=NC[C@@]4(CN5CCC4CC5)O3)nc2c1` [Example 271, (R)—N-(Thiazolo[5,4-h]pyridin-2-yl)-4H-1′-azaspiro[oxazole-5,3′-bicyclo[2.2.2]octan]-2-amine]: the half-maximal effective concentration (EC50) was less than 100 nM.

As to `c1cnc2sc(NC3=NC[C@@]4(CN5CCC4CC5)O3)nc2n1` [Example 272, (R)—N-(Thiazolo[5,4-b]pyrazin-2-yl)-4H-1′-azaspiro[oxazole-5,3′-bicyclo[2.2.2]octan]-2-amine], the EC50 is less than 100 nM.

Molecule `COc1nc(C)nc2sc(NC3=NC[C@@]4(CN5CCC4CC5)O3)nc12` [Example 273, (R)—N-(7-Methoxy-5-methylthiazolo[5,4-d]pyrimidin-2-yl)-4H-1′-azaspiro[oxazole-5,3′-bicyclo[2.2.2]octan]-2-amine] registered an EC50 of 1000 to 100000 nM.

In the case of `COc1ncnc2sc(NC3=NC[C@@]4(CN5CCC4CC5)O3)nc12` [Example 274, (R)—N-(7-Methoxythiazolo[5,4-d]pyrimidin-2-yl)-4H-1′-azaspiro[oxazole-5,3′-bicyclo[2.2.2]octan]-2-amine], the EC50 was 1000 to 100000 nM.

Molecule `N#Cc1cnc(NC2=NC[C@@]3(CN4CCC3CC4)O2)s1` [Example 275, (R)-2-(4H-1′-Azaspiro[oxazole-5,3′-bicyclo[2.2.2]octan]-2-ylamino)thiazole-5-carbonitrile] yielded an EC50 of 100 to 1000 nM.

`c1cc2nc(NC3=NC[C@@]4(CN5CCC4CC5)O3)ccc2cn1` [Example 277, (R)—N-(1,6-Naphthyridin-2-yl)-4H-1′-azaspiro[oxazole-5,3′-bicyclo[2.2.2]octan]-2-amine] gave an EC50 of less than 100 nM.

`Clc1cc(Cl)c2cnc(NC3=NC[C@@]4(CN5CCC4CC5)O3)cc2c1` [Example 279, (R)—N-(6,8-Dichloroisoquinolin-3-yl)-4H-1′-azaspiro[oxazole-5,3′-bicyclo[2.2.2]octan]-2-amine] had an EC50 of 100 to 1000 nM.

Take `Clc1ccc2cnc(NC3=NC[C@@]4(CN5CCC4CC5)O3)cc2c1Cl` [Example 281, (R)—N-(5,6-Dichloroisoquinolin-3-yl)-4H-1′-azaspiro[oxazole-5,3′-bicyclo[2.2.2]octan]-2-amine]: the EC50 was less than 100 nM.

Take `Clc1ccnc(NC2=NC[C@@]3(CN4CCC3CC4)O2)c1Cl` [Example 282, (R)—N-(3,4-Dichloropyridin-2-yl)-4H-1′-azaspiro[oxazole-5,3′-bicyclo[2.2.2]octan]-2-amine]: the EC50 was 100 to 1000 nM.

`Clc1cccnc1NC1=NC[C@@]2(CN3CCC2CC3)O1` [Example 283, (R)—N-(3-Chloropyridin-2-yl)-4H-1′-azaspiro[oxazole-5,3′-bicyclo[2.2.2]octan]-2-amine] yielded an EC50 of 100 to 1000 nM.

Molecule `Fc1cc(Cl)cnc1NC1=NC[C@@]2(CN3CCC2CC3)O1` [Example 284, (R)—N-(5-Chloro-3-fluoropyridin-2-yl)-4H-1′-azaspiro[oxazole-5,3′-bicyclo[2.2.2]octan]-2-amine] returned an EC50 of less than 100 nM.

`Clc1cccc(NC2=NC[C@@]3(CN4CCC3CC4)O2)n1` [Example 285, (R)—N-(6-Chloropyridin-2-yl)-4H-1′-azaspiro[oxazole-5,3′-bicyclo[2.2.2]octan]-2-amine]: the EC50 is 100 to 1000 nM.

`Clc1cc(Cl)nc(NC2=NC[C@@]3(CN4CCC3CC4)O2)c1` [Example 286, (R)—N-(4,6-Dichloropyridin-2-yl)-4H-1′-azaspiro[oxazole-5,3′-bicyclo[2.2.2]octan]-2-amine] returned an EC50 of 100 to 1000 nM.

Turning to `COc1ncccc1-c1ccnc(NC2=NC[C@@]3(CN4CCC3CC4)O2)c1` [Example 287, (R)—N-(2-methoxy-3,4′-bipyridin-2′-yl)-4H-1′-azaspiro[oxazole-5,3′-bicyclo[2.2.2]octan]-2-amine], the EC50 lay within 100 to 1000 nM.

On to `c1ccc2oc(NC3=NC[C@@]4(CN5CCC4CC5)O3)nc2c1` [Example 288, (R)—N-(Benzo[d]oxazol-2-yl)-4H-1′-azaspiro[oxazole-5,3′-bicyclo[2.2.2]octan]-2-amine], for which the EC50 was less than 100 nM.

Consider `Clc1ccc2oc(NC3=NC[C@@]4(CN5CCC4CC5)O3)nc2c1` [Example 289, (R)—N-(5-Chlorobenzo[d]oxazol-2-yl)-4H-1′-azaspiro[oxazole-5,3′-bicyclo[2.2.2]octan]-2-amine], for which the EC50 was less than 100 nM.

Consider `c1cnc2nc(NC3=NC[C@@]4(CN5CCC4CC5)O3)oc2c1` [Example 290, (R)—N-(Oxazolo[4,5-b]pyridin-2-yl)-4H-1′-azaspiro[oxazole-5,3′-bicyclo[2.2.2]octan]-2-amine], for which the EC50 is less than 100 nM.

As for `Cc1ccc2cnc(NC3=NC[C@@]4(CN5CCC4CC5)O3)cc2c1` [Example 291, (R)—N-(6-Methylisoquinolin-3-yl)-4H-1′-azaspiro[oxazole-5,3′-bicyclo[2.2.2]octan]-2-amine], the EC50 was less than 100 nM.

Consider `Brc1ccc2cnc(NC3=NC[C@@]4(CN5CCC4CC5)O3)cc2c1` [Example 292, (R)—N-(6-Bromoisoquinolin-3-yl)-4H-1′-azaspiro[oxazole-5,3′-bicyclo[2.2.2]octan]-2-amine], for which the EC50 is less than 100 nM.

As for `Brc1ccc2cc(NC3=NC[C@@]4(CN5CCC4CC5)O3)ncc2c1` [Example 293, (R)—N-(7-Bromoisoquinolin-3-yl)-4H-1′-azaspiro[oxazole-5,3′-bicyclo[2.2.2]octan]-2-amine], the EC50 lay within 100 to 1000 nM.
